Drawing on patent publication US12060349B2, “Glucosylceramide synthase inhibitors” (Genzyme Corporation, priority 2012, dated 2024), this text covers IC50 for 8 compounds.

One assay relates to C32 human melanoma cells. The assay is described as follows: cell viability in the C32 cell-based assay (Viability, C32 IC50). As to conditions: Homo sapiens, C32, C32 cells; concentration causing 50% cell death; values greater than 10 represent a lack of cell death; read-out: Viability, C32 IC50. In short, it runs like this:
(§1)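 Cell death was scored within the cell-based GM3 experiment for each line. The viability value is the concentration producing 50% death, and numbers exceeding 10 signify no cytotoxicity.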

Assay [1] has as its target T1, glucosylceramide synthase (Homo sapiens, UniProt Q16739).
T1 construct: Microsomes were isolated from A375 human melanoma cells; endogenous in cells; host or cells: A375 human melanoma cells (microsomal fraction, 100,000 g pellet)
T1 sequence (Q16739 1-394): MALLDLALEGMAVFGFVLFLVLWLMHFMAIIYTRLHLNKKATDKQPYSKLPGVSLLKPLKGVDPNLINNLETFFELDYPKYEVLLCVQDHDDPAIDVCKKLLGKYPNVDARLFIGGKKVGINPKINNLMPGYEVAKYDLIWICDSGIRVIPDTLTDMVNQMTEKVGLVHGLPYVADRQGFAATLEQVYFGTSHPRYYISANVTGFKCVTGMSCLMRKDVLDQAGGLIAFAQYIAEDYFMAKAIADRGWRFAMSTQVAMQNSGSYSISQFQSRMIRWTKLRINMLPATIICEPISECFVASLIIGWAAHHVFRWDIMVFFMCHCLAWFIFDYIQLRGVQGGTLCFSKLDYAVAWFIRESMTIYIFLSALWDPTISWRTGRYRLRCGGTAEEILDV
The assay can be described thus: microsomal assay measuring conversion of ceramide to glucosylceramide by HPLC (GCS IC50). In kind it is biochemical. The conditions noted are these: concentration causing 50% inhibition of glucosylceramide synthase activity. In a few lines:
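IC50 is the compound concentration halving glucosylceramide synthase activity. Activity was measured in microsomes, with HPLC quantifying glucosylceramide formed from ceramide.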

Assay [2] concerns GM3 expression on the cell surface, B16 mouse melanoma cells. The assay is described as follows: cell based phenotypic assay, cell surface GM3 by antibody mediated immunofluorescence, B16 (GM3 B16 IC50). The conditions noted are these: Mus musculus, B16 mouse melanoma cells; 50% inhibition of GM3 expression on the cell surface; read-out: GM3 B16 IC50. In short, it runs like this:
(§2)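 Both lines undergo the phenotypic GM3 assay, and viability is recorded from that same cell-based run.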

In assay [3] the test system is GM3 expression on the cell surface, C32 human melanoma cells. The assay can be described thus: cell based phenotypic assay, cell surface GM3 by antibody mediated immunofluorescence, C32 (GM3 C32 IC50). The conditions noted are these: Homo sapiens, C32 human melanoma cells; 50% inhibition of GM3 expression on the cell surface; read-out: GM3 C32 IC50. In short, it runs like this:
as §2

A further assay has as its system B16 mouse melanoma cells. The assay can be described thus: cell viability in the B16 cell-based assay (Viability, B16 IC50). As to conditions: Mus musculus, B16, B16 cells; concentration causing 50% cell death; values greater than 10 represent a lack of cell death; read-out: Viability, B16 IC50. In a few lines: as §1

Turning to `O=C(N[C@@H]1CN2CCC1CC2)C1(F)CCN(c2nccc(-c3ccc(OCCF)cc3)n2)CC1` [Example 88, (S)-4-Fluoro-1-(4-(4-(2-fluoroethoxy)phenyl)pyrimidin-2-yl)-N-(quinuclidin-3-yl)piperidine-4-carboxamide], the IC50 – broadly, the concentration needed to halve the response being measured – in the assay on C32 human melanoma cells was 1000 nM; in assay [1], 1.68 nM; in assay [2], 56.8 nM; in assay [3], 0.252 nM; with B16 mouse melanoma cells, at least 10000 nM.
As for `COCCOCc1ccc(-c2ccnc(N3CCC(F)(C(=O)NC4(C)CCN5CCC4CC5)CC3)n2)cc1` (stereo not shown) [Example 89, 4-Fluoro-1-(4-(4-((2-methoxyethoxy)methyl)phenyl)pyrimidin-2-yl)-N-(4-methyl-1-azabicyclo[3.2.2]nonan-4-yl)piperidine-4-carboxamide], the IC50 in the assay on C32 human melanoma cells was found to be 316 nM; in assay [1], 8.23 nM; in assay [2], 109 nM; in assay [3], 1.17 nM; in the assay with B16 mouse melanoma cells it was 9470 nM.
For the compound `CC1(NC(=O)C2(F)CCN(c3nccc(-c4ccc(OCCF)cc4)n3)CC2)CCN2CCC1CC2` (stereo not shown) [Example 90, 4-Fluoro-1-(4-(4-(2-fluoroethoxy)phenyl)pyrimidin-2-yl)-N-(4-methyl-1-azabicyclo[3.2.2]nonan-4-yl)piperidine-4-carboxamide], the 50% inhibitory concentration (IC50) with C32 human melanoma cells is 215 nM; in assay [1], 2.26 nM; in assay [2], 13.4 nM; in assay [3] it was 0.0953 nM; in the assay with B16 mouse melanoma cells it was 3060 nM.
As for `COCCOc1ccc(-c2nc(N3CCC(F)(C(=O)NC4(C)CCN5CCC4CC5)CC3)ncc2F)cc1` (stereo not shown) [Example 91, 4-Fluoro-1-(5-fluoro-4-(4-(2-methoxyethoxy)phenyl)pyrimidin-2-yl)-N-(4-methyl-1-azabicyclo[3.2.2]nonan-4-yl)piperidine-4-carboxamide], the 50% inhibitory concentration (IC50) with C32 human melanoma cells was found to be 100 nM; in assay [1] it was 2.04 nM; in assay [2], 71.4 nM; in assay [3] it was 0.117 nM; with B16 mouse melanoma cells it was 2660 nM.
On to `CC1(NC(=O)C2(F)CCN(c3nccc(-c4ccc(OCCF)cc4)n3)CC2)CN2CCC1CC2` (stereo not shown) [Example 92, 4-Fluoro-1-(4-(4-(2-fluoroethoxy)phenyl)pyrimidin-2-yl)-N-(3-methylquinuclidin-3-yl)piperidine-4-carboxamide], for which the IC50 was found to be 100 nM in the assay on C32 human melanoma cells; 1.46 nM in assay [1]; 29 nM in assay [2]; 0.106 nM in assay [3]; 6830 nM in the assay on B16 mouse melanoma cells.
For `COCCOc1ccc(-c2ccnc(N3CCC(F)(C(=O)NC4(C)CCN5CCC4CC5)CC3)n2)cc1` (stereo not shown) [Example 93, 4-Fluoro-1-(4-(4-(2-methoxyethoxy)phenyl)pyrimidin-2-yl)-N-(4-methyl-1-azabicyclo[3.2.2]nonan-4-yl)piperidine-4-carboxamide], the half-maximal inhibitory concentration (IC50) with C32 human melanoma cells was 316 nM; in assay [1] it was 3.96 nM; in assay [2], 43.9 nM; in assay [3], 0.261 nM; in the assay with B16 mouse melanoma cells, 3960 nM.
Turning to `CC1(NC(=O)C2(F)CCN(c3nccc(-c4ccc(F)cc4)n3)CC2)CCN2CCC1CC2` (stereo not shown) [Example 94, 4-Fluoro-1-(4-(4-fluorophenyl)pyrimidin-2-yl)-N-(4-methyl-1-azabicyclo[3.2.2]nonan-4-yl)piperidine-4-carboxamide], the concentration for half-maximal inhibition (IC50) was determined as 46.4 nM with C32 human melanoma cells; 0.736 nM in assay [1]; 14.4 nM in assay [2]; 0.0964 nM in assay [3]; 2100 nM in the assay on B16 mouse melanoma cells.
`CC1(NC(=O)C2(F)CCN(c3nccc(-c4ccc(F)cc4)n3)CC2)CN2CCC1CC2` (stereo not shown) [Example 95, 4-Fluoro-1-(4-(4-fluorophenyl)pyrimidin-2-yl)-N-(3-methylquinuclidin-3-yl)piperidine-4-carboxamide]: the IC50 in the assay on C32 human melanoma cells is 31.6 nM; in assay [1], 0.585 nM; in assay [2], 20 nM; in assay [3], 0.0836 nM; in the assay with B16 mouse melanoma cells it was 4690 nM.
